Results from patent publication US20120237446A1, “Compounds for binding and imaging amyloid plaques and their use” (BAYER PHARMA AKTIENGESELLSCHAFT, priority 2005, published 2012).

Legend:
[1] = target: T1, human AD brain homogenate (ADH) (Homo sapiens, UniProt P05067); test: Competition binding assay with a tritiated amyloid ligand using brain homogenate from AD patients; conditions: competition with 10 nM tritiated amyloid ligand, 100 μg/mL AD frontal cortex homogenate, PBS 0.1% BSA, 3 h, room temperature
T1 construct: from tissue; host or cells: frontal cortex (grey and white matter) of AD patients, homogenised in PBS
T1 sequence (P05067 672-713 limits assumed): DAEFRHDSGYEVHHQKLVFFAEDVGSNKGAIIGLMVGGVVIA
Experimental: A competition assay with a tritiated amyloid ligand was performed in 96-well plates (Greiner bio-one; Cat. 651201; Lot. 06260130) using brain homogenate from AD patients. Homogenates were prepared by homogenizing (Ultra-Turrax, setting 2, 30 s, 24000 rpm) dissected frontal cortex containing grey matter and white matter from AD patients in phosphate buffered saline (PBS, pH 7.4). The homogenate with a concentration of 100 mg wet tissue/mL was divided into aliquots of 300 μL and stored at −80° C. Varying concentrations of the unlabeled test substances were incubated with 100 μg/mL homogenate and 10 nM of the tritiated ligand in PBS, 0.1% BSA (final volume 200 μL) for 3 h at room temperature. Subsequently the binding mixture was filtered through Whatman GF/B filters (wetted with PBS, 0.1% BSA) using a Filtermate 196 harvester (Packard). Filters were then washed twice with PBS, 0.1% BSA and 40 μL scintillator was added to each well before the bound radioactivity was measured in a TopCount devise (Perkin Elmer). Non-specific binding was assessed by adding an excess of the reference ligand to the reaction mixture. Finally IC50 values were calculated with the help of appropriate analysis software.

[2] = Biodistribution (brain uptake and wash-out) in mice; format: in vivo, male NMRI mice
Experimental: Biodistribution and excretion studies were performed in male NMRI mice (body weight app. 30 g; 3 animals per time point). The animals were kept under normal laboratory conditions at a temperature of 22±2° C. and a dark/light rhythm of 12 h. Food and water were provided ad libitium. During an acclimation period of at least 3 days before the beginning of the study animals were clinically examined to ascertain the absence of abnormal clinical signs.
At 2 min, 5 min, 30 min, 1 h, 4 h post intravenous injection via the tail vein of ca. 185 kBq of the test compound, urine and feces were quantitatively collected. At the same time points, animals were sacrificed by decapitation under isoflurane anaesthesia and organs and tissues of interest were removed for the determination of radioactivity using a gamma-counter. For analysis the decay corrected percentage of the injected dose per tissue weight (% ID/g±standard deviation) was calculated.

amyloid beta plaques = target: T2, amyloid beta plaques (Homo sapiens, UniProt P05067); test: Autoradiographical analysis of binding to human brain sections; conditions: cortex sections of AD patients; controls from HC and FTD patients; blocking with excess of cold compound
T2 construct: Alzheimer's disease patients (AD) with amyloid beta plaques; from tissue; host or cells: fresh frozen and paraffin embedded frontal lobe sections of AD patients
T2 sequence (P05067 672-713 limits assumed): as above
Experimental: FIG. 4 Autoradiographical analysis of binding of compound 28 to brain sections from cortex of Alzheimer's disease patients (AD) with amyloid beta plaques. Control sections without amyloid beta pathology stem from healthy volunteers (HC) and fronto-temporal dementia (FTD) patients. Blocking of specific signals was performed with an excess of cold compound. […] Fresh frozen as well as paraffin embedded sections of the frontal lobe from Alzheimer's dementia patients, frontotemporal dementia patients and age matched controls were used for the study. Frozen sections, sliced at 18 μm thickness on a cryostate (Leica, Germany) and paraffin sections, sliced on a sliding microtom (Leica) at a thickness of 6 μm, were mounted onto glass slides (Superfrost Plus, Fa. Menzel, Braunschweig Germany). Frozen sections were allowed to adhere to the slides for several nights at −20° C. The paraffin sections were deparaffinized using routine histological methods. For binding studies sections were incubated with the labeled test compound at 10-20 Bq/μL diluted in 25 mM Hepes buffer, pH 7.4, 0.1% BSA (200-300 μL/slide) for 1.5 h. in a humidified chamber. For blocking experiments an excess of the unlabeled test substance was added to the incubation mixture. […] The air-dried sections were exposed to imaging plates and signals were detected by a phosphoimager device (Fuji BAS5000).

`O=C(C=CNc1ccc(OCF)cc1)c1ccccc1` (mixture of isomers) [Compound 1, (E/Z)-3-{[4-(Fluoromethoxy)phenyl]amino}-1-phenylprop-2-en-1-one] gave an IC50 [1] of 9 nM.
In the case of `O=C(C=CNc1ccc(OCCF)cc1)c1ccccc1` (mixture of isomers) [Compound 2, (E/Z)-3-{[4-(2-Fluoroethoxy)phenyl]amino}-1-phenylprop-2-en-1-one], the IC50 [1] is reported as 17 nM.
With `O=C(C=CNc1ccc(OCCF)cc1)c1ccc(Br)cc1` (mixture of isomers) [Compound 3, (E/Z)-1-(4-Bromophenyl)-3-{[4-(2-fluoroethoxy)phenyl]amino}prop-2-en-1-one] the IC50 [1] was 13 nM.
For `COc1ccc(NC=CC(=O)c2ccc(F)cc2)cc1` (mixture of isomers) [Compound 5, (E/Z)-1-(4-Fluorophenyl)-3-[(4-methoxyphenyl)amino]prop-2-en-1-one], the IC50 [1] was 400 nM.
Work on `CN(C)c1ccc(NC=CC(=O)c2ccc(F)cc2)cc1` (mixture of isomers) [Compound 6, (E/Z)-3-{[4-(Dimethylamino)phenyl]amino}-1-(4-fluorophenyl)prop-2-en-1-one] yielded an IC50 [1] of 5 nM.
`CN(C)c1ccc(NC=CC(=O)c2ccc(F)c(C(F)(F)F)c2)cc1` (mixture of isomers) [Compound 7, (E/Z)-3-{[4-(Dimethylamino)phenyl]amino}-1-[4-fluoro-3-(trifluoromethyl)phenyl]prop-2-en-1-one] showed an IC50 [1] of 258 nM.
`CN(C)c1ccc(NC=CC(=O)c2ccc(F)nc2)cc1` (mixture of isomers) [Compound 10, (E/Z)-3-{[4-(Dimethylamino)phenyl]amino}-1-(6-fluoropyridin-3-yl)prop-2-en-1-one] gave an IC50 [1] of 4 nM.
For `COc1ccc(NC=CC(=O)c2ccc(F)nc2)cc1` (mixture of isomers) [Compound 11, (E/Z)-1-(6-Fluoropyridin-3-yl)-3-[(4-methoxyphenyl)amino]prop-2-en-1-one], the IC50 [1] was 28 nM.
`O=C(C=CNc1ccc(F)cc1)c1ccccc1` (mixture of isomers) [Compound 12, (E/Z)-3-[(4-Fluorophenyl)amino]-1-phenylprop-2-en-1-one] gave an IC50 [1] of 26 nM.
`O=C(C=CNc1ccc(F)c(Br)c1)c1ccccc1` (mixture of isomers) [Compound 13, (E/Z)-3-[(3-Bromo-4-fluorophenyl)amino]-1-phenylprop-2-en-1-one] showed an IC50 [1] of 46 nM.
For `O=C(C=CNc1ccc(OCCF)cc1)c1ccc(-c2ccccc2)cc1` (mixture of isomers) [Compound 14, (E/Z)-1-Biphenyl-4-yl-3-{[4-(2-fluoroethoxy)phenyl]amino}prop-2-en-1-one], the IC50 [1] was 140 nM.
In the case of `CN(C)c1ccc(NC=CC(=O)c2ccc([18F])nc2)cc1` (mixture of isomers) [Compound 28, (E/Z)-3-{[4-(Dimethylamino)phenyl]amino}-1-(6-[^18F]-fluoropyridin-3-yl)prop-2-en-1-one], the “Brain uptake and elimination of the radioactive background signal from the brain (in words)” value ([2]; healthy mouse brain, devoid of plaques) is reported as “advantageous rapid elimination of the radioactive background signal from the brain”, the “Brain uptake at 2 min” value ([2]; mice, 2 min after intravenous injection, [18F] signal, healthy brain) is reported as 7.66 % ID/g and the “Brain uptake at 30 min” value ([2]; mice, 30 min after intravenous injection, [18F] signal, healthy brain) is reported as 0.78 % ID/g. The “Brain wash-out ratio [% ID/g at 2 min]/[% ID/g at 30 min]” value ([2]; mice, intravenous injection, healthy brain) was 9.8 and the “Autoradiographic binding to brain sections (in words)” value (amyloid beta plaques) was “plaque-specific signals”.
Compound `O=C(/C=C\Nc1ccc(OCCCF)cc1)c1ccccc1` [Compound 4, (Z)-3-{[4-(3-Fluoropropoxy)phenyl]amino}-1-phenylprop-2-en-1-one] has an IC50 [1] of 18 nM.
